Measured values published in patent US6472369B1, “Anticancer compounds and methods” (The Regents of the University of Michigan, priority 1996, dated 2002).
Where no end group is shown, it is not given here. [ ]: non-standard residue; d: D form. hCys = N[C@@H](CCS)C(=O)O

Tests used:
[1] = system: rat metastatic prostate carcinoma MatLyLu (MLL) cells; test: SU-ECM invasion assay, rat MatLyLu prostate carcinoma cells; format: cell-based; settings: 10% FCS, FIG. 8
Procedure: (§1) Adult Strongylocentrotus purpuratus sea urchins were obtained from Pacific BioMarine, and their embryos were cultured to the early pluteus stage in artificial sea water at 15° C. SU-ECM were prepared from them by treatment with nonionic detergent and strerilized by dilution in the appropriate media.
(§2) Cells were harvested by rinsing in Hanks' balanced salt solution, followed by brief treatment with 0.25% trypsin, 0.02% EDTA, and pelleting and resuspension in the appropriate medium with or without 5% FCS at a density of about 50,000 cells per ml. When appropriate, purified bovine plasma fibronectin (Sigma), purified 120 kDa chymotryptic fragment (Gibco BRL), PHSRN (SEQ ID NO:1) or PHSCN (SEQ ID NO:86) peptides (synthesized at the Biomedical Research Core Facilities of the University of Michigan), or GRGDSP (SEQ ID NO:83) or GRGESP (SEQ ID NO:84) peptides (Gibco BRL) were added to the resuspended cells prior to placement of the cells on SU-ECM. In each well of a plate used for an invasion assay, SU-ECM were placed in 0.5 ml of the appropriate medium, and 0.5 ml of the resuspended cells dropped on their exterior surfaces. Invasion assays were incubated 1 to 16 hours prior to assay. If some circumstances, invasion assays were fixed in phosphate-buffered saline (PBS) with 2% formaldehyde for 5 minutes at room temperature, then rinsed into PBS.
(§3) Invasion assays were coded and scored blindly by microscopic examination under phase contrast at 200- and 400-fold magnification. Each cell contacting an SU-ECM was scored for its position relative to the exterior or interior surfaces. A cell was judged to have invaded if it was located on an interior surface below the focal plane passing through the upper surface of the SU-ECM, but above the focal plane passing through its lower surface. The minimum viability of the cells in each assay was always ascertained at the time of assay by determining the fraction of spread, adherent cells on the bottom of each well scored.
(§4) An invasion frequency is defined as the fraction of cells in contact with basement membranes which were located in their interiors at the time of assay. Thus, an invasion frequency of 1 denotes invasion by 100% of the cells in contact with basement membranes. Invasion frequencies were determined multiple times for each cell type assayed. For each type of cell assayed the mean and standard deviation of the invasion frequencies were calculated.
The result of adding a varying concentration of the PHSCN (SEQ ID NO:86) peptide to PHSRN-induced (SEQ ID NO:1) MLL cells in serum free media is shown in FIG. 7B, where 100 ng per ml of PHSRN (SEQ ID NO:1) was used to induce invasion.
The procedure described in Example 10, was employed using SU-ECM substrates in 10% FCS and PHS(hC)N (SEQ ID NO:85) instead of PHSCN (SEQ ID NO:86). The result of adding varying concentrations of the PHS(hC)N (SEQ ID NO:85) peptide to serum-induced MLL cells indicates this peptide also has an inhibitory affect on cell invasion (see FIG. 8).

[2] = system: metastatic SUM-52 PE breast cancer cells; test: SU-ECM invasion assay, SUM-52 PE breast cancer cells; format: cell-based, human; settings: SUM-52 cells
Procedure: Human breast carcinoma cell lines SUM 52 PE and SUM 44 PE were originally cultured from the pleural effusions of patients with metastatic breast cancer; and SUM 102 was cultured from a primary, microinvasive breast carcinoma (Ethier, S. P., Mahack, M. L., Gullick, W. J., Frank, T. S., and Weber, B. L. Differential isolation of normal luminal mammary epithelial cells and breast cancer cells from primary and metastatic sites using selective media. Cancer Res. 53: 627-635).
as §1, §2, §3, §4
The method of Example 4 is employed, with the addition of varying concentrations of the PHSCN (SEQ ID NO:86) peptide.
Thus, the procedure in Example 4 provides a method for determining the inhibitory potential of the PHSCN (SEQ ID NO:86) peptide by comparing the number of cell invasions in the presence of the PHSCN (SEQ ID NO:86) peptide, with the number of cell invasions in the absence of the PHSCN (SEQ ID NO:86) peptide.

[3] = system: metastatic DU-145 prostate cancer cells; test: SU-ECM invasion assay, DU-145 prostate cancer cells; format: cell-based, human; settings: DU-145 cells
[4] = system: DU-145 metastatic prostate cancer cells; test: Invasion of fibronectin-depleted Matrigel by DU-145 cells; format: cell-based, human; settings: 0.5 μl/ml peptide added to gelatin-panned Matrigel, FIG. 3
Procedure: This example describes a purification approach for removal of plasma fibronectin (and/or cellular fibronectin) from a substrate (Matrigel). In this example, removal was attempted by successive panning on gelatin. Eight wells of 24-well plate were coated with a 2% gelatin solution (the gelatin was obtained from Becton Dickinson Labware, Catalog #11868). The wells were filled with the gelatin solution which had been heated to 50 C. and incubated for 3 minutes. Then the solution was removed and the wells were allowed to air dry. Following drying, the wells were thoroughly rinsed with ddH2O followed by two rinses with PBS. The plates were again allowed to dry; thereafter they were stored at −20 C. until use. Matrigel was thawed on ice and then added to one of the wells of a gelatin-coated plate (between 800 μl and 1 ml of Matrigel was added to a well of a 24-well plate). The plate was placed in a bucket of ice in a 4 C. room on an orbital shaker where the Matrigel was incubated in the well for two hours (although overnight incubation can be used). Following the incubation, the Matrigel was moved from the first well to a second well and then incubated for two hours under the same conditions. This process was repeated until the Matrigel had been incubated on all eight wells of the gelatin-coated plate.
Following the depletion of the Matrigel, it was collected in Eppendorf tubes. […]

[5] = system: normal, neonatal fibroblasts; test: Invasion of gelatin- and antibody-depleted Matrigel by fibroblasts; format: cell-based; settings: Matrigel depleted by gelatin and antibody panning, FIG. 4
Procedure: Anti-fibronectin antibody-coated wells: Wells of a 24-well plate were coated with an anti-fibronectin antibody. A mouse monoclonal antibody to human fibronectin was obtained from Oncogene Science (Catalog #CP13). Each well was incubated with 1 ml of antibody at a concentration of 30 μl/ml for 2 hours at room temperature. Each well was then incubated with a solution of 3% BSA in PBS for 2 hours at room temperature. Following the two incubation periods, the wells were thoroughly washed with PBS and stored at −20 C. until use.
Depleting Matrigel of Fibronectin: Matrigel was panned over eight gelatin-coated wells (as described above in Example 2) to remove most of the fibronectin and its fragments. Thereafter, the Matrigel was placed in the antibody-coated wells to remove any remaining fragments of fibronectin which contain the cell-binding domain but not the gelatin-binding domain. The Matrigel was incubated in an ice bucket on an orbital shaker at 4 C. for 2 hours. Once the Matrigel was depleted, it was collected in Eppendorf tubes. The firbonectin-depleted Matrigel was plated on a 48-well plate (150 μl/well), sterilized under a UV light for 10 minutes and incubated at 37 C. overnight. The Matrigel formed a gel and the following day, cells were added to the wells. […]

[6] = system: neonatal, human fibroblasts; test: Fibroblast invasion of SU-ECM basement membranes; format: cell-based; settings: for stimulation of fibroblast invasion of basement membranes in vitro: in the presence of serum or under serum-free conditions
Procedure: as §1
as §2, with “If some circumstances, invasion assays were fixed in phosphate-buffered saline (PBS) with 2% formaldehyde for 5 minutes at room temperature, then rinsed into PBS.” left out
as §3, with “A cell was judged to have invaded if it was located on an interior surface below the focal plane passing through the upper surface of the SU-ECM, but above the focal plane passing through its lower surface.” left out
as §4, with “Thus, an invasion frequency of 1 denotes invasion by 100% of the cells in contact with basement membranes.” left out, “calculated. […]” for “calculated.”

[7] = system: keratinocytes; test: Keratinocyte invasion of serum-free SU-ECM; format: cell-based
Text: Since, during wound reepithelialization, keratinocytes migrate through the connective tissue of the provisional matrix to “wall off” portions of the wound, as well as through the adjacent stroma, it is not surprising that they are also stimulated to migrate through the matrix of SU-ECM invasion substrates by the PHSRN (SEQ ID NO:1) sequence. […] Recruitment of fibroblasts or monocytes/macrophages whose paracrine, regulatory effects on a variety of neighboring cells are required for the early stages of wound healing is contemplated as a highly efficient and effective way to stimulate the cascade of regulatory interactions involved in wound healing because these cells will secrete the active factors or cytokines in the correct temporal sequences and spatial locations to ensure their optimal activities. Because it efficiently induces keratinocyte migration through the extracellular matrix in vitro, the PHSRN (SEQ ID NO:1) peptide is also likely to stimulate wound reepithelialization directly. The use of the PHSRN (SEQ ID NO:1) peptide or structurally related molecules according to the present invention is to stimulate the entry of cells such as fibroblasts and monocyte/macrophages into the provisional matrix of a wound, so that the entering cells themselves secrete the factors and cytokines active in inducing or potentiating wound healing. […]

| Substance | inhibition of serum-induced invasion of SU-ECM ([1]; higher concentrations) | inhibition of serum-induced invasion of SU-ECM ([1]; lower concentrations) | induction of invasion of the SU-ECM substrate [2] | induction of invasion of the SU-ECM substrate [3] | restoration of DU-145 invasiveness on depleted Matrigel [4] | induction of fibroblast invasiveness on depleted Matrigel [5] | stimulation of fibroblast invasion of basement membranes in vitro [6] | induction of fibroblast invasion of SU-ECM ([6]; serum-free SU-ECM) | stimulation of keratinocyte invasion [7] |
| --- | --- | --- | --- | --- | --- | --- | --- | --- | --- |
| PHS(hC)N: homo-cysteine containing peptide (PHS[hCys]N) | completely inhibits invasion | substantially inhibits invasion | – | – | – | – | – | – | – |
| Pro-His-Ser-Arg-Asn (PHSRN) | – | – | induced to invade | induced to invade | sufficient to restore the full DU-145 invasiveness | invasiveness of the fibroblasts could be induced | sufficient to stimulate fibroblast invasion | induced | stimulate keratinocyte invasion |
| intact plasma fibronectin: purified bovine plasma fibronectin (Sigma); a significant component of serum | – | – | induced to invade | induced to invade | – | – | fails to stimulate fibroblast invasion | – | – |
